In PubChem BioAssay AID1845212 (Molecular Pharmacology Branch, DTP, NCI, 2023):

Test system: NCI-H719 tumor spheroids, viability
Experiment: Anticancer human tumor NCI-H719 cell line growth inhibition;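 note: spheroids exposed to compounds for seven days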;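 for viability, T/C: percent viability relative to DMSO vehicle control as 100%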
Conditions: spheroids with HUVEC and MSC; for IC50: curve of first compound; for viability, T/C: stronger effect = lower value
Summary of the method: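 Single agents and combinations were tested on spheroids built from tumor cells plus HUVEC and hMSC, at half-log dilutions starting at or near clinical Cmax, else 10 microM; final DMSO 0.25% (v/v).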

[1] = second compound 0.003 µM, first compound 0.0316 µM
[2] = second compound 0.003 µM, first compound 0.1 µM
[3] = second compound 0.003 µM, first compound 0.316 µM
[4] = second compound 0.003 µM, first compound 1 µM
[5] = second compound 0.003 µM, first compound 3.16 µM
[6] = second compound 0.003 µM, first compound 10 µM
[7] = second compound 0.00949 µM, first compound 0.0316 µM
[8] = second compound 0.00949 µM, first compound 0.1 µM
[9] = second compound 0.00949 µM, first compound 0.316 µM
[10] = second compound 0.00949 µM, first compound 1 µM
[11] = second compound 0.00949 µM, first compound 3.16 µM
[12] = second compound 0.00949 µM, first compound 10 µM
[13] = second compound 0.03 µM, first compound 0.0316 µM
[14] = second compound 0.03 µM, first compound 0.1 µM
[15] = second compound 0.03 µM, first compound 0.316 µM
[16] = second compound 0.03 µM, first compound 1 µM
[17] = second compound 0.03 µM, first compound 3.16 µM
[18] = second compound 0.03 µM, first compound 10 µM
[19] = second compound 0.0949 µM, first compound 0.0316 µM
[20] = second compound 0.0949 µM, first compound 0.1 µM
[21] = second compound 0.0949 µM, first compound 0.316 µM
[22] = second compound 0.0949 µM, first compound 1 µM
[23] = second compound 0.0949 µM, first compound 3.16 µM
[24] = second compound 0.0949 µM, first compound 10 µM
[25] = second compound 0.3 µM, first compound 0.0316 µM
[26] = second compound 0.3 µM, first compound 0.1 µM
[27] = second compound 0.3 µM, first compound 0.316 µM
[28] = second compound 0.3 µM, first compound 1 µM
[29] = second compound 0.3 µM, first compound 3.16 µM
[30] = second compound 0.3 µM, first compound 10 µM

Compound	IC50 (second compound 0.003 µM)	IC50 (second compound 0.00949 µM)	IC50 (second compound 0.03 µM)	IC50 (second compound 0.0949 µM)	IC50 (second compound 0.3 µM)	viability, T/C [1]	viability, T/C [2]	viability, T/C [3]	viability, T/C [4]	viability, T/C [5]	viability, T/C [6]	viability, T/C [7]	viability, T/C [8]	viability, T/C [9]	viability, T/C [10]	viability, T/C [11]	viability, T/C [12]	viability, T/C [13]	viability, T/C [14]	viability, T/C [15]	also measured
CC1COCCN1c1cc(-c2ccnn2C)c2ccnc(-c3ccn[nH]3)c2n1 (stereo not given) + CC[C@@]1(O)C(=O)OCc2c1cc1n(c2=O)Cc2cc3c(CN(C)C)c(O)ccc3nc2-1	< 31.6 nM	< 31.6 nM	< 31.6 nM	< 31.6 nM	< 31.6 nM	14.9%	7.36%	5.05%	5.69%	5.95%	7.37%	5.44%	4.76%	5.26%	4.81%	5.91%	7.24%	5.59%	5.35%	4.66%	viability, T/C [16]: 4.18%; viability, T/C [17]: 5.76%; viability, T/C [18]: 7.48%; viability, T/C [19]: 5.89%; viability, T/C [20]: 5.72%; viability, T/C [21]: 4.2%; viability, T/C [22]: 3.96%; viability, T/C [23]: 3.73%; viability, T/C [24]: 3.78%; viability, T/C [25]: 5.64%; viability, T/C [26]: 5.76%; viability, T/C [27]: 5.49%; viability, T/C [28]: 2.94%; viability, T/C [29]: 2.15%; viability, T/C [30]: 2.17%
COc1cc(C)[nH]c(=O)c1CN1CCc2c(Cl)cc(C(OC)C3COC3)c(Cl)c2C1=O (stereo not given) + CC[C@@]1(O)C(=O)OCc2c1cc1n(c2=O)Cc2cc3c(CN(C)C)c(O)ccc3nc2-1	> 10000 nM	< 31.6 nM	< 31.6 nM	< 31.6 nM	< 31.6 nM	69.7%	57.6%	74.2%	65%	77%	69.1%	12.2%	9.34%	9.67%	10.4%	7.95%	7.67%	6.93%	8.47%	6.68%	viability, T/C [16]: 8.32%; viability, T/C [17]: 8.79%; viability, T/C [18]: 7.28%; viability, T/C [19]: 8.78%; viability, T/C [20]: 7.8%; viability, T/C [21]: 7.84%; viability, T/C [22]: 8.96%; viability, T/C [23]: 8.75%; viability, T/C [24]: 8.8%; viability, T/C [25]: 7.71%; viability, T/C [26]: 9.03%; viability, T/C [27]: 8.64%; viability, T/C [28]: 9.67%; viability, T/C [29]: 8.76%; viability, T/C [30]: 7.22%
Cc1cc(C)c(CNC(=O)c2cc(-c3ccc(CN4CCOCC4)cc3)cc3c2cnn3C2CCCC2)c(=O)[nH]1 + CC[C@@]1(O)C(=O)OCc2c1cc1n(c2=O)Cc2cc3c(CN(C)C)c(O)ccc3nc2-1	2260 nM	< 31.6 nM	< 31.6 nM	< 31.6 nM	< 31.6 nM	52.6%	52.9%	54.8%	51.6%	49.1%	39.2%	6.76%	6.82%	6.88%	6.69%	6.81%	5.13%	6.03%	5.75%	6.33%	viability, T/C [16]: 5.99%; viability, T/C [17]: 6.45%; viability, T/C [18]: 16.3%; viability, T/C [19]: 5.7%; viability, T/C [20]: 5.83%; viability, T/C [21]: 5.84%; viability, T/C [22]: 6.02%; viability, T/C [23]: 6.69%; viability, T/C [24]: 6.41%; viability, T/C [25]: 5.68%; viability, T/C [26]: 6.37%; viability, T/C [27]: 6.67%; viability, T/C [28]: 6.18%; viability, T/C [29]: 6.37%; viability, T/C [30]: 6.13%
[2H]c1nc(C)nc([2H])c1-c1cc(NC[C@@H](C)c2cccc3c(C(=O)NC)ccnc23)ncn1 + CC[C@@]1(O)C(=O)OCc2c1cc1n(c2=O)Cc2cc3c(CN(C)C)c(O)ccc3nc2-1	> 10000 nM	< 31.6 nM	< 31.6 nM	< 31.6 nM	< 31.6 nM	51%	62.2%	63.5%	52%	66%	51.4%	10.3%	8.59%	8.43%	7.06%	6.95%	9.89%	7.23%	6.65%	6.56%	viability, T/C [16]: 8.39%; viability, T/C [17]: 8.61%; viability, T/C [18]: 8.73%; viability, T/C [19]: 7.9%; viability, T/C [20]: 7.8%; viability, T/C [21]: 7.91%; viability, T/C [22]: 7.63%; viability, T/C [23]: 7.79%; viability, T/C [24]: 9.29%; viability, T/C [25]: 8.56%; viability, T/C [26]: 8.32%; viability, T/C [27]: 8.45%; viability, T/C [28]: 8.64%; viability, T/C [29]: 8.15%; viability, T/C [30]: 8.2%
